According to patent publication US20170304329A1 (THE UNIVERSITY OF KANSAS, priority 2014, published 2017):

Assays:
Assay type in all cases: cell-based, human
[1] = system: T24 cells transfected with Notch-1 intracellular domain (NICD); assay: Ectopic NICD expression and cell proliferation; conditions: CPX 4 μM
Protocol: We determined whether ectopic expression of NICD reversed ciclopirox (CPX) mediated inhibition of cell proliferation. For this study, T24 Cells were transfected with plasmid EF.hICN1.CMV.GFP encoding the Notch-1 intracellular domain (NICD) or the empty vector EF.v-CMV.GFP (Addgene Inc.) and subsequently treated with CPX (4 μM). Cell proliferation was detected using hexoaminidase assay.

[2] = system: T24 cells; assay: Proliferation with predicted CPX urine concentration in 20% normal urine; conditions: 3 days treatment, 50 uM-1.5625 uM CPX in 20% normal urine, 72 h
Protocol: We next determined the effect of CPX in normal urine on T24 and 253JBV cells upon everyday treatment for up to 72 h (3 days treatment). The idea behind this experiment is to see the effect of predicted concentration of CPX in human urine on bladder cancer cells as the patient's bladder will be exposed every day to the predicted concentration of CPX. Three sets of plates were used, one plate each for one day treatment, two days treatment and three days treatment of CPX (50-1.5625 uM). T24 and 253JBV cells were incubated with CPX in normal urine (20% normal urine in complete RPMI media). […] The effect of CPX was determined by hexosaminidase assay beyond the 12 hours of varying CPX concentration (25 h, 48 h, and 72 h). In two days treatment, the cells are exposed to 50 uM-1.5625 uM for two days and the effect was determined by hexosaminidase assay at 48 h and 72 h time points. In three days treatment, the cells are exposed to 50 uM-1.5625 uM for three days and the effect was determined by hexosaminidase assay at 72 h time point.
T24 Cells were incubated with CPX in normal urine (20% normal urine in complete RPMI media). […] The effect of CPX was determined by hexosaminidase assay beyond the 12 hours of varying CPX concentration (25 h, 48 h, and 72 h). […]

[3] = system: T24 cells; assay: Cell proliferation, hexosaminidase assay
Protocol: (§1) To determine the effect of CPX on bladder cancer cell proliferation in T24 (MIBC) and 253-JBV (NMIBC) cells, 5,000 cells per well were seeded on to 96-well plates and grown overnight. The cells were then treated with increasing doses of CPX in RPMI media containing 10% FBS. Analysis of cell proliferation after the treatment period was estimated by the hexosaminidase assay. Briefly, the medium was removed and hexosaminidase substrate solution in citrate buffer pH 5 (7.5 mM), p-nitrophenol-N-acetyl-beta-D-glucosaminidase (Sigma Aldrich) was added at 75 μL per well. The plate was incubated at 37° C. in 100% humidity for 30 minutes. The reaction was stopped with 112.5 μL of 50 mM glycine containing 5 mM of EDTA (pH 10.4). The absorbance was measured at 405 nm. Experiments were conducted at n=6, and then repeated at least three times. The data were analyzed as percent of control, where the control wells were treated with equivalent amounts of DMSO alone. For IC50 calculations, a plot between the drug concentration and hexosaminidase activity was generated and the data was fitted either linearly or exponentially. The best fit was used for further processing of data.
(§2) We determined and compared the effect of CPX with CPX-POM and CPX-glucuronide in vitro by performing proliferation assay. To determine the effect of CPX, CPX-POM and CPX-glucuronide on bladder cancer cell proliferation in T24 (MIBC) and 253-JBV (NMIBC) cells, 5,000 cells per well were seeded on to 96-well plates and grown overnight. The cells were then treated with increasing doses of CPX, CPX-POM and CPX-glucuronide in RPMI media containing 10% FBS. Analysis of cell proliferation after the treatment period was estimated by the hexosaminidase assay. Briefly, the medium was removed and hexosaminidase substrate solution in citrate buffer pH 5 (7.5 mM), p-nitrophenol-N-acetyl-beta-D-glucosaminidase (Sigma Aldrich) was added at 75 μL per well. The plate was incubated at 37° C. in 100% humidity for 30 minutes. The reaction was stopped with 112.5 μL of 50 mM glycine containing 5 mM of EDTA (pH 10.4). The absorbance was measured at 405 nm.
(§3) Experiments were conducted at n=6, and then repeated at least three times. The data were analyzed as percent of control, where the control wells were treated with equivalent amounts of DMSO alone. For IC50 so calculations, a plot between the drug concentration and hexosaminidase activity was generated and the data was fitted either linearly or exponentially.

[4] = system: 253JBV cells; assay: Cell proliferation, hexosaminidase assay; conditions: for IC50: 48 h
Protocol: as §1, §2, §3

[5] = system: T24 bladder cancer cells; assay: Annexin V-FITC apoptosis labeling; conditions: 4 μM, up to 48 h
Protocol: It was determined that CPX induces apoptosis. We next determined whether the compounds could induce cell death through the apoptotic pathway. For this we treated T24 bladder cancer cells with CPX (4 μM) and labeled the cells with FITC conjugated Annexin V to detect apoptotic cells. […] Cells were incubated with the indicated dose of compound for up to 48 h.

IC50 ([3]; Homo sapiens, T-24, 48 h, 48 h): 4000 nM
Structure (SMILES): Cc1cc(C2CCCCC2)n(O)c(=O)c1 [CPX, 6-cyclohexyl-1-hydroxy-4-methylpyridin-2(1H)-one]
rescue of proliferation by NICD [1]: Ectopic expression of NICD reversed CPX mediated inhibition of cell proliferation
maximum inhibition of proliferation [2]: 20%
effect on cell proliferation ([3]; up to 72 h): significant dose- and time-dependent decrease in cell proliferation
IC50 [4]: 3000 nM
IC50 ([4]; Homo sapiens): 2000 nM
effect on cell proliferation ([4]; up to 72 h): significant dose- and time-dependent decrease in cell proliferation
cell death (Annexin V-FITC labeled cells) [5]: significant increase in cell death
